Results: ChEMBL document CHEMBL5154855 (J Med Chem, 2022)
The source made the active and inactive calls. No cut-off for these calls is given here. Positions of bridges follow the written chain, without caps; N, C: chain ends. Non-standard residues stand in square brackets, D forms with d. Residues, ends and D or L forms follow the SMILES beside them. d2Nal = N[C@H](Cc1ccc2ccccc2c1)C(=O)O; Nle = CCCC[C@H](N)C(=O)O

Tests used:
Melanocortin receptor 3 [1] = molecular target: T1, Melanocortin receptor 3 (Homo sapiens, UniProt P41968); experiment: Antagonist activity at human MC3R transfected in HEK293T cells co-transfected with GScAMP22F assessed as inhibition of alpha-MSH-indued cAMP production; assay type: functional, cell-based; details: HEK293, filed as antagonist
T1 sequence (P41968 whole entry): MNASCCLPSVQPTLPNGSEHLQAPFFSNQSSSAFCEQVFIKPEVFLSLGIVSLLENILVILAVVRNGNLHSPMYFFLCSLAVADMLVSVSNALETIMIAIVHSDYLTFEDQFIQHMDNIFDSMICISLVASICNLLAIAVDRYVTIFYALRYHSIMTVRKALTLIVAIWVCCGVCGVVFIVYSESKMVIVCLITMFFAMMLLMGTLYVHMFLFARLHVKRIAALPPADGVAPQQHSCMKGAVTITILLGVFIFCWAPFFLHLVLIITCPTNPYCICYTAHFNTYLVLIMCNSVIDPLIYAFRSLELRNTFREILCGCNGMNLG

[2] = molecular target: Melanocortin receptor 4 (Homo sapiens) (UniProt P32245); experiment: Antagonist activity at human MC4R transfected in HEK293T cells co-transfected with GScAMP22F assessed as inhibition of alpha-MSH-indued cAMP production; assay type: functional, cell-based; details: HEK293, filed as antagonist
Sequence of Melanocortin receptor 4 (Homo sapiens) (P32245 whole entry): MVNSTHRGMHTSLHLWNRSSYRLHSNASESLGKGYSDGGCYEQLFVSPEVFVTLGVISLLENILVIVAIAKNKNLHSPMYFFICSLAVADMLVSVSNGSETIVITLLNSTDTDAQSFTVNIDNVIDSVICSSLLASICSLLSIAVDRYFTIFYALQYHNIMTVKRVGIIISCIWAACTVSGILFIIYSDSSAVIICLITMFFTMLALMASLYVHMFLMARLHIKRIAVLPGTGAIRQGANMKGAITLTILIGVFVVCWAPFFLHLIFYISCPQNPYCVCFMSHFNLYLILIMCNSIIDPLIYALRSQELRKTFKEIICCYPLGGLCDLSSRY

Melanocortin receptor 3 [3] = molecular target: T1, Melanocortin receptor 3; experiment: Agonist activity at human MC3R transfected in HEK293T cells co-transfected with GScAMP22F assessed as increase in cAMP level; assay type: functional, cell-based; details: HEK293, filed as agonist
[4] = molecular target: Melanocortin receptor 4 (Homo sapiens) (UniProt P32245); experiment: Agonist activity at human MC4R transfected in HEK293T cells co-transfected with GScAMP22F assessed as increase in cAMP level; assay type: functional, cell-based; details: HEK293, filed as agonist
[5] = molecular target: Melanocortin receptor 5 (Homo sapiens) (UniProt P33032); experiment: Agonist activity at human MC5R transfected in HEK293 cells co-transfected with GScAMP22F assessed as increase in cAMP level by split luciferase cAMP sensor dynamic assay relative to control; assay type: functional, cell-based
Sequence of Melanocortin receptor 5 (Homo sapiens) (P33032 whole entry): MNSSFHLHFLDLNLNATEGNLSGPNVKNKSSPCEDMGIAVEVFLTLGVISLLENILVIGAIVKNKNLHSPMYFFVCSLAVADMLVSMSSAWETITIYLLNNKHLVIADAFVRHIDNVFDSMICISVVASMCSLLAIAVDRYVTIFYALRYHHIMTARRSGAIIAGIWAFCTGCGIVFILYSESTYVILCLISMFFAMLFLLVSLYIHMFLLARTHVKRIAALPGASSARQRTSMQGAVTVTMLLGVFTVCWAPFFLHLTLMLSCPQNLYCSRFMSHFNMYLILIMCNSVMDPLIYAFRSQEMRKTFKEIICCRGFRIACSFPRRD

Melanocortin receptor 3 [6] = molecular target: T1, Melanocortin receptor 3; experiment: Agonist activity at human MC3R transfected in HEK293 cells assessed as cAMP accumulation by split-luciferase assay
[7] = molecular target: Melanocyte-stimulating hormone receptor (Homo sapiens) (UniProt Q01726); experiment: Agonist activity at human MC1R transfected in HEK293 cells co-transfected with GScAMP22F assessed as increase in cAMP level by split luciferase cAMP sensor dynamic assay relative to control; assay type: functional, cell-based
Sequence of Melanocyte-stimulating hormone receptor (Homo sapiens) (Q01726 whole entry, looked up): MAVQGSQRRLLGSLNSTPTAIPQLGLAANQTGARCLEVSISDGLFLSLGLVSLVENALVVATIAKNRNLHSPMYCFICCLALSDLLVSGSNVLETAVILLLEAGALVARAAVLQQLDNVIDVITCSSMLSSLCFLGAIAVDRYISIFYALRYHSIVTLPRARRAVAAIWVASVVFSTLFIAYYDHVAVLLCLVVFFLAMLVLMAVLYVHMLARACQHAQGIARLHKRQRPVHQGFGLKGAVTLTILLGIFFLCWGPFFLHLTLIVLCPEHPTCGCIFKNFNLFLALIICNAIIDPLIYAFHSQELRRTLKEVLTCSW

`CCCC[C@H](NC(=O)[C@@H](NC(=O)[C@@H](N)Cc1ccc(O)cc1)C(C)C)C(=O)NCC(=O)N[C@@H](Cc1cnc[nH]1)C(=O)N[C@H](Cc1ccc2ccccc2c1)C(=O)N[C@@H](CCCNC(=N)N)C(=O)N[C@H](Cc1c[nH]c2ccccc12)C(=O)N[C@@H](CC(=O)O)C(=O)N[C@@H](CCCNC(=N)N)C(=O)N[C@@H](Cc1ccccc1)C(=O)NCC(=O)O` was tested, and the Activity (Melanocortin receptor 3 [1]) was “Active” and the Activity [2] was “Active”.

`CC(=O)N[C@@H](CCCNC(=N)N)C(=O)N[C@H]1CSSC[C@@H](C(N)=O)NC(=O)[C@H](Cc2c[nH]c3ccccc23)NC(=O)[C@H](CCCNC(=N)N)NC(=O)[C@@H](Cc2ccccc2)NC(=O)[C@H](Cc2c[nH]cn2)NC(=O)[C@@H](C)NC1=O` was tested, and the Activity (Melanocortin receptor 3 [3]) was “Active” and the Activity [4] was “Active”.

`CCCC[C@H](NC(=O)[C@@H](NC(=O)[C@@H](N)Cc1ccc(O)cc1)C(C)C)C(=O)NCC(=O)N1CCC[C@H]1C(=O)N[C@H](Cc1ccc2ccccc2c1)C(=O)N[C@@H](CCCN=C(N)N)C(=O)N[C@@H](Cc1c[nH]c2ccccc12)C(=O)N[C@@H](CC(=O)O)C(=O)N[C@@H](CCCN=C(N)N)C(=O)N[C@@H](Cc1ccccc1)C(=O)NCC(N)=O` (H-YV[Nle]GP[d2Nal]RWDRFG-NH2) showed an Emax [5] of less than 10%.

With `CCCC[C@H](NC(=O)[C@@H](NC(=O)[C@@H](N)Cc1ccc(O)cc1)C(C)C)C(=O)NCC(=O)N[C@@H](Cc1cnc[nH]1)C(=O)N[C@@H](Cc1ccccc1)C(=O)N[C@@H](CCCNC(=N)N)C(=O)N[C@H](Cc1c[nH]c2ccccc12)C(=O)N[C@@H](CC(=O)O)C(=O)N[C@@H](CCCNC(=N)N)C(=O)N[C@@H](Cc1ccccc1)C(=O)NCC(=O)O` the Activity [4] was “Active”.

With `CCCC[C@H](NC(=O)[C@@H](NC(=O)[C@@H](N)Cc1ccc(O)cc1)C(C)C)C(=O)NCC(=O)N[C@@H](Cc1c[nH]cn1)C(=O)N[C@H](Cc1ccc2ccccc2c1)C(=O)N[C@@H](CCCN=C(N)N)C(=O)N[C@@H](Cc1c[nH]c2ccccc12)C(=O)N[C@@H](CC(=O)O)C(=O)N[C@@H](CCCN=C(N)N)C(=O)N[C@@H](Cc1ccccc1)C(=O)NCC(N)=O` the EC50 (Melanocortin receptor 3 [6]) was greater than 10 µM.

For `CC(=O)N[C@@H](CCCNC(=N)N)C(=O)N[C@@H]1CSSC[C@H](C(N)=O)NC(=O)[C@H](Cc2c[nH]c3ccccc23)NC(=O)[C@H](CCCNC(=N)N)NC(=O)[C@@H](Cc2ccc3ccccc3c2)NC(=O)[C@H](Cc2c[nH]cn2)NC(=O)[C@@H](C)NC1=O`, the Activity (Melanocortin receptor 3 [1]) was “Active” and the Activity [2] was “Active”.

`CCCC[C@H](NC(C)=O)C(=O)N[C@H]1CC(=O)NCCCC[C@@H](C(N)=O)NC(=O)[C@H](Cc2c[nH]c3ccccc23)NC(=O)[C@H](CCCNC(=N)N)NC(=O)[C@@H](Cc2ccc3ccccc3c2)NC(=O)[C@@H]2CCCN2C(=O)[C@@H]2CCCN2C1=O` (Ac-[Nle]DPP[d2Nal]RWK-NH2; lactam 2-8) gave an Emax [7] of less than 10%.

`CCCC[C@H](N)C(=O)N[C@H]1CC(=O)NCCCC[C@@H](C(N)=O)NC(=O)[C@H](Cc2c[nH]c3ccccc23)N(C)C(=O)[C@H](CCCNC(=N)N)NC(=O)[C@@H](Cc2ccccc2)NC(=O)[C@@H]2CCCN2C1=O` was tested, and the Activity (Melanocortin receptor 3 [3]) was “Active” and the Activity [4] was “Active”.
